# pIC50: −log10 of the molar value.
# What was measured:
# [1] = tested on: hypoxic cells in HT29 tumours; experiment: HT29 excision assay (drug after 20 Gy radiation, clonogenic survival); type: in vivo, human; conditions: log10 kill of hypoxic cells in HT29 tumours, additional to radiation alone; MTD or 75% of MTD; Table 2
# Excerpt: In order to test the validity of this PK/PD model as a tool for predicting the antitumour activity of TPZ analogues, the inventors determined the key PK/PD parameters for 13 TPZ analogues, and TPZ itself, for the HT29 human colon carcinoma cell line. These parameters were then used to calculate the expected killing in hypoxic regions of HT29 tumours following a single intraperitoneal dose of the compounds at their maximum tolerated dose. The results of this calculation were then compared with measured killing of hypoxic cells in HT29 tumours, determined by administering the compounds immediately (within 5 min) after gamma irradiation (cobalt 60, 20 Gy) to sterilise oxygenated cells in the tumours. Tumours were removed 18 hours later and the number of surviving cells determined by clonogenic assay. The measured PK/PD parameters, model prediction (using the above 3D microvascular network), and experimentally determined hypoxic cell kill is shown in Table 1, and the relationship between predicted and measured cell kill in FIG. 4. The prediction is statistically highly significant (p=0.001, Fisher exact test). […] If the extravascular transport component was excluded from the model, the R^2 for this regression was only 0.28 and the relationship was not statistically significant.
# Animals were treated with radiation alone (RAD, 20 Gy whole body); RAD+TPZ (316 μmol/kg); compound 3 (562 μmol/kg); RAD+compound 3 (562 μmol/kg). Tumours were excised 18 hr after treatment and clonogenic survival determined by staining colonies 14 days later. Each symbol represents a separate tumour. p<0.01 (one way ANOVA with Dunnett's test) for RAD+compound 3 and for RAD+TPZ versus RAD only. Horizontal lines are the historical means for untreated controls (upper line) and 20 Gy radiation only (lower line).
# Compounds were evaluated with single dose radiation using s.c. HT29 tumors (average of two largest diameters 7-10 mm) grown by inoculating 10^7 cells (obtained by enzymatic dissociation of multicellular spheroids). Drugs were administered as single i.p. doses at their MTD with the following groups in each experiment. A: vehicle control, B: test drug, C: Radiation (20 Gy, cobalt-60, whole body irradiation), D: TPZ (316 μmol/kg) 5 min after radiation, E: Test drug 5 min after radiation. Each group included 3 (A, B) or 5 (C-E) mice. Tumors were excised 18 hr after treatment and plated to determine clonogenicity. Hypoxic cytotoxicity is determined by the difference in surviving fraction between groups C and E, while comparison of A and B evaluates oxic cell killing. Total yield of clonogens was used as the key parameter if cell yields were affected by treatment. Results of this assay are illustrated for compound 3 (and TPZ) in FIG. 5.
# [2] = Plasma pharmacokinetics, AUC of free drug in CD-1 nude mice; type: in vivo, mouse; conditions: CD-1 nude, mouse, plasma, ip, mouse plasma, free drug, at the MTD or 75% of the MTD; Table 2; read-out: AUC
# Description: The area under the concentration time curve for free drug (AUCf) in mouse plasma at the maximum tolerated dose (MTD) was determined either experimentally or by calculation.
# The compound was formulated in a suitable vehicle (e.g. 0.9% saline, 5% DMSO in 0.9% saline) and administered intraperitoneally (i.p.) as single dose to CD-1 nude mice in a dose-escalating format using 1.33-fold dose increments.
# The compound was administered to CD-1 nude mice in a suitable formulation as a single dose (i.p.) at the MTD. Blood samples were collected by retro-orbital sinus bleed or cardiac puncture after which the mouse was culled, or by serial bleeding from the tail vein. Typical time points were 15, 30, 60, and 120 min after administration. Blood was collected in a heparinised container and centrifuged to collect the plasma. The plasma concentration of the compound was determined by HPLC or LCMS using suitable sample preparation and analytical methods. Calibration was done with internal or external standards. The area under the concentration-time curve (AUC) for total (free plus bound) drug was calculated using the linear/log trapezoidal rule and extrapolation to infinity OR standard non-compartmental (PK) modelling.
# Plasma protein binding was measured by the determination of the free fraction (FF) by equilibrium dialysis at 37° C. in 50% (v/v) mouse plasma in phosphate-buffered saline (pH 7.4), using a single drug concentration at or near the observed or extrapolated maximum concentration in plasma (Cmax). Compound concentrations after dialysis were determined by HPLC or LCMS.
# AUCf for the compound administered as a single dose (i.p.) to CD-1 nude mice at the MTD can be estimated using the following regression equation: Log10(AUCf)=a+b×log Pneutral+c×log10(IC50)+d×log10(HCR)+e×log10(DMCL)+f×log10(kmet)+g×(log Pneutral)^2 where the coefficients are described in the following table: […]
# [3] = Solubility in culture medium; type: physicochemical; conditions: culture medium (αMEM with 5% foetal bovine serum), plasma or biological fluid, thermodynamic from solid; culture medium (αMEM, 5% foetal bovine serum), pH 7.4; no unit in table, threshold is 2 mM
# Description: Solubility is determined in laboratory culture medium (alpha minimal essential medium (αMEM) with 5% foetal bovine serum) saturated with 5% carbon dioxide at pH 7.4, by addition of excess compound and sonication at ambient temperature for 15 minutes. Alternatively the compound is diluted from a concentrated stock solution in DMSO into culture medium to give a final DMSO concentration <1%. The mixture is centrifuged at 13,000 rpm for 6 minutes and the concentration of drug in the supernatant solution is then determined by HPLC using a standard reference solution in a suitable solvent.
# [4] = tested on: human colon carcinoma cell line HT-29; experiment: Proliferation assay (IC50) under aerobic and hypoxic conditions; type: cell-based; conditions: for pIC50: Homo sapiens, HT-29, HT29, anoxic, 4 hr exposure; for HCR: hypoxic cytotoxicity ratio: aerobic IC50 / hypoxic IC50, HT29
# Description: Compounds representative of the invention were evaluated under both aerobic and hypoxic conditions in a proliferation assay (IC50) using the human colon carcinoma cell line HT-29 as previously described [Hay et al, J. Med. Chem, 2003, 46, 169]. For each experiment, compounds were simultaneously tested under both oxic and hypoxic conditions and included TPZ as an independent internal control at the front and back of the assay. In all cases, a 8-methyl-5-nitroquinoline derivative was used as a second internal control to confirm that strict hypoxia was present during the experiment [Siim et al., Br. J. Cancer 1994, 70, 596].
Compound,HT29 log kill [1],AUC [2] [µM·h],solubility [3] [mM],pIC50 [4],HCR [4]
"Cc1ccc2c(c1)[n+]([O-])c(NCCCN1CCOCC1)n[n+]2[O-] [O, 6-Methyl-N-[3-(4-morpholinyl)propyl]-1,2,4-benzotriazin-3-amine 1,4-Dioxide]",1.28,195,42.6,4.81,24.7
"COc1ccc2c(c1)[n+]([O-])c(NCCN(C)C)n[n+]2[O-] [P, N^1-(6-Methoxy-1,4-dioxido-1,2,4-benzotriazin-3-yl)-N^2,N^2-dimethyl-1,2-ethanediamine]",1.84,240,45.5,5.12,89.3
"COCCOc1ccc2c(c1)[n+]([O-])c(NCCN(C)C)n[n+]2[O-] [Q, N^1-[6-(2-Methoxyethoxy)-1,4-dioxido-1,2,4-benzotriazin-3-yl]-N^2,N^2-dimethyl-1,2-ethanediamine]",0.53,256,51.2,5.30,162.0
"CCOc1ccc2c(c1)[n+]([O-])c(NCCN(C)C)n[n+]2[O-] [R, N^1,N^1-Dimethyl-N^2-(6-ethoxy-1,4-dioxido-1,2,4-benzotriazin-3-yl)-1,2-ethanediamine]",0.83,82.4,50.3,5.59,120.6
"CCc1ccc2c(c1)[n+]([O-])c(NCCCN1CCOCC1)n[n+]2[O-] [S, 6-Ethyl-N-[3-(4-morpholinyl)propyl]-1,2,4-benzotriazin-3-amine 1,4-Dioxide]",0.82,94.9,54.9,4.98,35.0
"CCc1n[n+]([O-])c2ccc(OCCN(C)C)cc2[n+]1[O-] [T, 2-[(3-Ethyl-1,4-dioxido-1,2,4-benzotriazin-6-yl)oxy]-N, N-dimethylethaneamine]",0.88,55.7,48.5,5.88,307.2
"CCc1n[n+]([O-])c2ccc(OCCCN3CCOCC3)cc2[n+]1[O-] [U, 3-Ethyl-6-[3-(4-morpholinyl)propoxy]-1,2,4-benzotriazine 1,4-Dioxide]",1.66,162,46.7,5.21,166.2

# Source: US7816521B2, “1,2,4-benzotriazine-1,4-dioxides” (Auckland Uniservices Limited, priority 2004, dated 2010)
